Counter-ions that a name gives are not always drawn. Like-named read-outs stand apart in the source and are kept apart here.
How the values were obtained:
[1] = tested on: H3K79 methylation in MOLM-13 cells; assay: Cellular H3K79 methylation analysis (histone immunoblot) in MOLM-13 cells; type: cell-based, human
MOLM-13 cells = assay: Cell growth and viability / proliferation, MOLM-13 cells; type: cell-based, human
HOXA9 = HOXA9 transcript levels by quantitative real-time PCR; conditions: for IC50: read-out: decrease of HOXA9 transcript, IC50
CD14 = assay: Cell surface expression of differentiation marker CD14 by flow cytometry, MOLM-13 cells; conditions: 3 μM
TBP = assay: Housekeeping gene TBP transcript levels
MV4-11 cells [2] = assay: Proliferation assay, MV4-11 cells; type: cell-based, human; conditions: 3 μM, several days
DOT1L(1-416) = DOT1L(1-416) (Homo sapiens (Human), UniProt Q8TEK3); assay: Determination of IC50, DOT1L biochemical assay
Sequence of DOT1L(1-416) (Q8TEK3 1-416): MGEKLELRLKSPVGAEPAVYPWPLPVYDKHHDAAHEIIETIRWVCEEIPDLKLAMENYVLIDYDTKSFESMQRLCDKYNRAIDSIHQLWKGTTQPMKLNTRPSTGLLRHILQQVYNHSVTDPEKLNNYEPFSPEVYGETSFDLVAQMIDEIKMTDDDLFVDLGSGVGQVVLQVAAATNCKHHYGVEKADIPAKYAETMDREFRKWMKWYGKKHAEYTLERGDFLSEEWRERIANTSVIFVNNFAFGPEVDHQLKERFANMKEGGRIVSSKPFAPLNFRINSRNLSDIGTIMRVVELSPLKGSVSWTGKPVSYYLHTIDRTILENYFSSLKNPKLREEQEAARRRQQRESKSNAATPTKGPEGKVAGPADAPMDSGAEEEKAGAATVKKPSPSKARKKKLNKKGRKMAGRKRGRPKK

[3] = tested on: MLL-rearranged human leukemia cell lines; assay: Proliferation IC50 in panel of MLL-rearranged leukemia cell lines; type: cell-based; conditions: six MLL-rearranged cell lines (FIG. 6)
H3K79me2 in Jurkat cells = assay: Cellular H3K79me2 immunoblot in Jurkat cells; conditions: Jurkat (non-MLL-rearranged)
MV4-11 cells [4] = assay: Cell cycle and apoptosis by flow cytometry (DNA content, Annexin V), MV4-11 cells; conditions: 3 μM, after day four over the next six days
H3K79me2 in MV4-11 cells = assay: Cellular histone methylation immunoblot in MV4-11 cells
MEIS1 = MEIS1 transcript levels by quantitative real-time PCR; conditions: for IC50: read-out: decrease of MEIS1 transcript, IC50
[5] = tested on: non-MLL rearranged human leukemia cell lines; assay: Proliferation IC50 in panel of non-MLL-rearranged leukemia cell lines; type: cell-based; conditions: six non-MLL rearranged cell lines (FIG. 6), read-out: IC50 for inhibition of proliferation
Jurkat cells = assay: Proliferation assay, Jurkat cells; type: cell-based, human; conditions: 3 μM, several days
[6] = MV4-11 cells, 3 μM, time course

## CN(CCCNC(=O)Nc1ccc(C(C)(C)C)cc1)CC1O[C@@H](n2ccc3c(N)ncnc32)[C@H](O)[C@@H]1O (stereo partly shown) [Compound 9, hydrochloride]
[1]; MOLM-13 cells, read-out: H3K79 IC50 MOLM-13 cells
  IC50: 77 nM
MOLM-13 cells; MOLM-13 cells, read-out: Proliferation IC50 MOLM-13 cells
  IC50: 17300 nM

## CC(C)N(CCCNC(=O)Nc1ccc(C(C)(C)C)cc1)C[C@H]1O[C@@H](n2ccc3c(N)ncnc32)[C@H](O)[C@@H]1O [Compound 16, 1-(3-((((2R,3S,4R,5R)-5-(4-amino-7H-pyrrolo[2,3-d]pyrimidin-7-yl)-3,4-dihydroxytetrahydrofuran-2-yl)methyl)(isopropyl)amino)propyl)-3-(4-(tert-butyl)phenyl)urea]
HOXA9; 3 μM, mRNA over time
  estimated half-life for HOXA9 inhibition: 55.2 h
HOXA9; MOLM-13 cells
  IC50: ~700 nM
HOXA9; MV4-11 cells
  IC50: ~700 nM
CD14
  expression of CD14: induced following 12 days
TBP
  transcript levels of the housekeeping gene TBP: unaffected
[1]; MOLM-13 (MLL-AF9), immunoblot
  global H3K79me2 levels: concentration dependent reduction
MV4-11 cells [2]
  number of viable cells: dramatically reduced
DOT1L(1-416); versus SAM
  mode of binding to the enzyme (steady state kinetic analysis): binds to the enzyme competitively with SAM
[3]
  IC50 for inhibition of proliferation: nanomolar to low micromolar range
H3K79me2 in Jurkat cells
  global H3K79me2 levels: concentration dependent reduction
MV4-11 cells [4]
  cell cycle and apoptosis: increase in sub-G1 and Annexin-positive cells
H3K79me2 in MV4-11 cells; MV4-11 (MLL-AF4), immunoblot
  global H3K79me2 levels: concentration dependent reduction
H3K79me2 in MV4-11 cells; MV4-11 cells
  methyl marks affected (panel of methyl-lysine and methyl-arginine specific antibodies): only methyl marks affected by compound 16 treatment were H3K79me1 and H3K79me2
H3K79me2 in MV4-11 cells; [6]
  H3K79me2 levels within one day of treatment: modest reduction
  time to full depletion of H3K79me2: four to five
MEIS1; 3 μM, mRNA over time
  estimated half-life for MEIS1 inhibition: 79.2 h
MEIS1; MOLM-13 cells
  IC50: ~700 nM
MEIS1; MV4-11 cells
  IC50: ~700 nM
MOLM-13 cells; MOLM-13 cells, 3 μM, several days
  number of viable cells: dramatically reduced
[5]
  IC50: > 10000 nM
Jurkat cells
  growth of cells: unaffected

## CC(C)N(CCCNC(=O)Nc1ccc(C(C)(C)C)cc1)C[C@H]1O[C@@H](n2ccc3c(N)ncnc32)[C@H](O)[C@@H]1O [Compound 17, 1-(3-((((2R,3S,4R,5R)-5-(4-amino-7H-pyrrolo[2,3-d]pyrimidin-7-yl)-3,4-dihydroxytetrahydrofuran-2-yl)methyl)(isopropyl)amino)propyl)-3-(4-(tert-butyl)phenyl)urea hydrochloride]
[1]; Homo sapiens, MOLM-13, read-out: H3K79 IC50 MOLM-13 cells
  IC50: 59 nM
MOLM-13 cells; Homo sapiens, MOLM-13, read-out: Proliferation IC50 MOLM-13 cells
  IC50: 3200 nM

## CC(C)N(CCCCc1nc2cc(C(C)(C)C)ccc2[nH]1)C[C@H]1O[C@@H](n2ccc3c(N)ncnc32)[C@H](O)[C@@H]1O [Compound 18, (2R,3R,4S,5R)-2-(4-amino-7H-pyrrolo[2,3-d]pyrimidin-7-yl)-5-(((4-(5-(tert-butyl)-1H-benzo[d]imidazol-2-yl)butyl)(isopropyl)amino)methyl)tetrahydrofuran-3,4-diol]
DOT1L(1-416)
  IC50: < 10 nM

## CC(C)(C)c1ccc(NC(=O)NCCCNC[C@H]2O[C@@H](n3ccc4c(N)ncnc43)[C@H](O)[C@@H]2O)cc1 [Compound 20]
DOT1L(1-416)
  IC50: < 1000 nM

## CC(=O)N(CCCNC(=O)Nc1ccc(C(C)(C)C)cc1)C[C@H]1O[C@@H](n2ccc3c(N)ncnc32)[C@H](O)[C@@H]1O [Compound 21]
DOT1L(1-416)
  IC50: < 1000 nM
